Assay results: patent US9610294B2, “Methods and compositions for the treatment of fluid accumulation in and/or under the retina” (UNIVERSITE PARIS DESCARTES, priority 2010, dated 2017)

System: AQP4
Assay: AQP4 expression (real-time PCR, western blot) in rat RMG primary cultures and retinal explants
Format: cell-based
Protocol: Rat RMG cells were obtained as described (deKozak, Y., Naud, M. C., Bellot, J., Faure, J. P., and Hicks, D. (1994) Differential tumor necrosis factor expression by resident retinal cells from experimental uveitis-susceptible and -resistant rat strains. J Neuroimmunol 55, 1-9). Briefly, rats at postnatal (PN) day 17 (when RMG cells are mature) were sacrificed and eyes enucleated. Intact eyeballs were maintained in DMEM overnight at room temperature in the dark, and then incubated 45 min with 2 mg/ml trypsin/collagenase I at 37° C. The neural retinas were separated from the lens and vitreous, cut into small fragments and plated in Petri dishes containing DMEM supplemented with 10% FCS, 100 units/ml penicillin, 100 µg/ml streptomycin, and 0.2% amphotericin B. Cultures were maintained at 37° C. in a humidified atmosphere containing 5% CO2. After 5 to 6 days, the cultures were washed extensively with medium so that only a strongly adherent flat cell population remained.
Müller cells were seeded in 6-well tissue culture plates (Becton Dickinson, Le Pont de Claix, France). Rat PN17 RMG cells were maintained in their initial Petri dishes. Sub confluent (80%) cells were incubated in media supplemented with 10% steroid-free (charcoal treated) FCS for 24 hrs. Corticosteroid (Sigma-Aldrich, Saint Quentin Fallavier, France) treatments were then applied respectively for a further 24 hrs: 10 nM aldosterone, 10 nM aldosterone plus 1).IM RU38486 (GR-specific antagonist), 10 nM aldosterone plus 1 µM RU26752 (MR-specific antagonist) or 1 µM dexamethasone. The steroids were previously dissolved in 2% steroid-free FCS media containing 0.1% ethanol. Control cells were treated with 0.1% ethanol in media.
After enucleation, rat retinas were isolated immediately under aseptic conditions and cut into 4 pieces. They were then transferred onto a Cyclopore 0.2).Im polycarbonate membrane (Whatman, Maidstone, England), and flatmounted with the vitreal side up. The support membranes were placed in 6-well tissue culture plates containing 2 ml DMEM supplemented with 10% steroid-free FCS, 1% penicillin-streptomycin and 0.1% amphotericin B. Explants were treated with corticosteroids as described for cultured cells. Similarly, the dose-dependent effect of aldosterone (0.1-100 nM) was analyzed on retinal explants in separate experiments.
Total RNA was isolated from the treated RMG cells and retinal explants using RNeasy Mini Kit (Qiagen, Courtaboeuf, France). First-strand cDNA was synthesized after DNase I (Qiagen) treatment using random primers (Invitrogen) and superscript II reverse transcriptase (Invitrogen). Transcript levels of ENaC-a, Kir4.1 and AQP4 were analyzed by real-time PCR performed in 7500 Real-Time PCR System (Applied Biosystems, Foster City, Calif., USA) with either TaqMan® (Applied Biosystems) or SYBR® Green (Invitrogen, Cergy Pontoise, France) detection. The 18S was used as internal control.
Retinal explants were homogenized in Np40 buffer in the presence of protease inhibitors. The protein concentration was determined by the Bradford method. Equal amounts of protein (12 .ug) were separated on Novex® 4%-12% Tris-Glycine gel (Invitrogen), transferred to nitrocellulose, and the blots were incubated with primary antibodies at 4° C. overnight. The membranes were washed, incubated with horse radish peroxidase conjugated goat anti-rabbit IgG (1:3000, Vector, AbCys, Paris, France) for 1 hr at room temperature, and developed using ECL Plus western blotting detection reagents (GE healthcare, Orsay, France). The j3-actin was used as internal control. The following primary antibodies were used: rabbit anti-alpha ENaC (1:500, Abcam, Cambridge, Mass., USA), rabbit anti-Kir4.1 (1:400, Alomone Labs, Jerusalem, Israel), rabbit anti-AQP4 (1:750, Millipore, St Quentin en Yvelines, France) and rabbit anti-j3-actin (1:1000, Abcam)

C[C@]12CCC(=O)C=C1CC[C@@H]1[C@@H]2[C@@H](O)C[C@]2(C=O)[C@@H](C(=O)CO)CC[C@@H]12 [aldosterone]
AQP4 mRNA expression (24 hrs treatment, RMG primary cultures or retinal explants): increase
aquaporin 4 (AQP4) up-regulation (aldosterone 24 hrs): 2.9 fold
aldosterone concentration at which increase in AQP4 mRNA is saturated (dose-dependent effect, retinal explants): 10 nM
expression of aquaporin 4 (AQP4) (normal rat, 24 hours exposure, low aldosterone dose (1-10 nM)): enhances the expression
AQP4 expression at the protein level (western blot): increases
